# Data taken from patent publication US10457707B2, “Substituted urea depsipeptide analogs as activators of the CLPP endopeptidase” (priority 2015, dated 2019).
# Read-outs that look alike come from different tables or passages of the source. *1 amine or outer side, *2 acyl side, *3 side chain or, on linkers, in order; H or OH if unused. Where a SMILES comes first, the peptide text is derived from it. Bridges are numbered along the chain shown (N, C = ends). [ ]: non-standard residue; d: D form. The star is where a group is joined. ξ: configuration not given here. Phe(3,5-F2) = N[C@@H](Cc1cc(F)cc(F)c1)C(=O)O; NH(4-OCF3-phenyl) = FC(F)(F)Oc1ccc(N*)cc1; Morpholine(3S-CO) = O=C(O)[C@@H]1COCCN1; Pro(4S-Me) = C[C@@H]1CN[C@H](C(=O)O)C1; NH(4-Cl-2-F-phenyl) = Fc1cc(Cl)ccc1N*; Pro(4R-Me) = C[C@H]1CN[C@H](C(=O)O)C1; NMeaThr = CN[C@H](C(=O)O)[C@H](C)O; Hyp = O=C(O)[C@@H]1C[C@@H](O)CN1; NH(4-Et-phenyl) = CCc1ccc(N*)cc1; NMeT = CN[C@H](C(=O)O)[C@@H](C)O; Heptenoyl(2E) = CCCC/C=C/C(=O)*; NH(4-Me-phenyl) = Cc1ccc(N*)cc1; aThr = C[C@H](O)[C@H](N)C(=O)O; Pip = O=C(O)[C@@H]1CCCCN1; NMeA = CN[C@@H](C)C(=O)O; CO = O=C([*:1])[*:2]; ξP = O=C(O)C1CCCN1
# Legend:
# Sa-ClpP = target: T1, Sa-ClpP (Staphylococcus aureus, UniProt Q2G036); assay: ADEP displacement fluorescence polarization assay (FP probe ADEP 2591); type: binding
# T1 construct: made in house; host or cells: E. coli BL21(DE3)
# T1 sequence (Q2G036 1-195): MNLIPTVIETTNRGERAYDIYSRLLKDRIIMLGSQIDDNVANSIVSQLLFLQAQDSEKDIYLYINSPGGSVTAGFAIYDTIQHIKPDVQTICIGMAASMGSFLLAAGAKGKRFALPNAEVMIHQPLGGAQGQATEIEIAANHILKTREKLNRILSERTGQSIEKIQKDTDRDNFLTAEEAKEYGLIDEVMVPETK
# Outline: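 Master mix of 15 μM S. aureus ClpP with 50 nM TAMRA-labelled ADEP 2591 probe in Tris-HCl pH 8.0, 2% DMSO, was pre-equilibrated 1 h, then incubated with compound 120 min at room temperature. Polarization (ex 530, em 579 nm) was normalized to 200 μM ADEP 2378 and DMSO controls; four-parameter fits, triplicate.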
# [1] = Cytotoxicity assay (CellTiter-Glo cell viability, 72 hours); type: cell-based; conditions: African green monkey
# Outline: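 Vero cells, 5000/well, grown overnight at 37° C, 5% CO2 in DMEM with 10% FBS, then exposed to serial compound dilutions or DMSO for 72 hours. Viability read by CellTiter-Glo luminescence. IC50 from duplicate wells, reported as range over two independent experiments.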
# [2] = test system: Streptococcus pyogenes, ATCC 700294; assay: Minimal inhibitory concentration assay (microbroth dilution); type: cell-based
# Outline: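 CLSI broth microdilution: two-fold serial compound dilutions in appropriate broth, inoculated and incubated aerobically overnight at 37° C. MIC read visually as lowest concentration preventing bacterial growth.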
# [3] = displacement of FP probe ADEP 2591 from Sa-ClpP, read-out: ADEP Displacement IC50
# [4] = Streptococcus pyogenes, ATCC700294; read-out: Minimal Inhibitory Concentrations S. pyogenes ATCC 700294
# [5] = Vero cells, 72 hours, growth inhibition, read-out: Cytotoxicity IC50
# [6] = Streptococcus pyogenes, ATCC700294, read-out: Minimal Inhibitory Concentrations S. pyogenes ATCC 700294
SMILES,IC50 (Sa-ClpP; [3]) [µM],IC50 at 72 h [1] [µM],"MIC [2, 4] [µM]",IC50 (Sa-ClpP) [µM],"IC50 at 72 h [1, 5] [µM]","MIC [2, 6] [µM]"
"CCc1ccc(NC(=O)N[C@@H](Cc2cc(F)cc(F)c2)C(=O)N[C@@H]2C(=O)N3CCC[C@H]3C(=O)N(C)[C@@H]([C@H](C)O)C(=O)N[C@@H](C)C(=O)N3C[C@@H](C)C[C@H]3C(=O)O[C@H]2C)cc1 [Compound 204, (S)-3-(3,5-difluorophenyl)-2-(3-(4-ethylphenyl)ureido)-N-((2S,6S,9S,11aS,17S,18S,20aS)-9-((S)-1-hydroxyethyl)-2,6,10,18-tetramethyl-5,8,11,16,20-pentaoxohexadecahydro-1H,5H,16H-dipyrrolo[2,1-c:2′,1′-l][1]oxa[4,7,10,13]tetraazacyclohexadecin-17-yl)propanamide] ({NH(4-Et-phenyl)-CO}-[Phe(3,5-F2)][aThr]P[NMeaThr]A[Pro(4S-Me)]; ester 2-C)",7 ± 0.4,33.8 ± 1.6,0.098,,,
C[C@@H]1C[C@H]2C(=O)OC[C@H](NC(=O)[C@H](Cc3ccccc3)NC(=O)Nc3ccc(OC(F)(F)F)cc3)C(=O)N3CCC[C@H]3C(=O)N3CCCC[C@H]3C(=O)N[C@@H](C)C(=O)N2C1 [Compound 205],,88.3 ± 15.2,0.1,21.6 ± 1.4,,
"Cc1ccc(NC(=O)N[C@@H](Cc2ccccc2)C(=O)N[C@H]2COC(=O)[C@@H]3C[C@@H](C)CN3C(=O)[C@H](C)NC(=O)[C@@H]3CCCCN3C(=O)[C@@H]3CCCN3C2=O)cc1C [Compound 206, (S)—N-((2R,6S,8aS,14aS,20S,23aS)-2,6-dimethyl-5,8,14,19,23-pentaoxooctadecahydro-1H,5H,14H,19H-pyrido[2,1-i]dipyrrolo[2,1-c:2′,1′-l][1]oxa[4,7,10,13]tetraazacyclohexadecin-20-yl)-2-(3-(3,4-dimethylphenyl)ureido)-3-phenylpropanamide]",,,,7.1 ± 0.3,74 ± 7.7,< 0.2
"Cc1ccc(NC(=O)N[C@@H](Cc2cc(F)cc(F)c2)C(=O)N[C@H]2COC(=O)[C@@H]3C[C@@H](C)CN3C(=O)[C@H](C)NC(=O)[C@@H]3CCCCN3C(=O)[C@@H]3CCCN3C2=O)cc1C [Compound 207, (S)-3-(3,5-difluorophenyl)-N-((2R,6S,8aS,14aS,20S,23aS)-2,6-dimethyl-5,8,14,19,23-pentaoxooctadecahydro-1H,5H,14H,19H-pyrido[2,1-i]dipyrrolo[2,1-c:2′,1′-l][1]oxa[4,7,10,13]tetraazacyclohexadecin-20-yl)-2-(3-(3,4-dimethylphenyl)ureido)propanamide]",,,,5.2 ± 0.3,31.1 ± 5.6,< 0.2
"Cc1ccc(NC(=O)N[C@@H](Cc2cc(F)cc(F)c2)C(=O)N[C@@H]2C(=O)N3CCC[C@H]3C(=O)N(C)[C@@H]([C@H](C)O)C(=O)N[C@@H](C)C(=O)N3C[C@H](C)C[C@H]3C(=O)O[C@H]2C)cc1 [Compound 208, (S)-3-(3,5-difluorophenyl)-N-((2R,6S,9S,11aS,17S,18S,20aS)-9-((S)-1-hydroxyethyl)-2,6,10,18-tetramethyl-5,8,11,16,20-pentaoxohexadecahydro-1H,5H,16H-dipyrrolo[2,1-c:2′,1′-l][1]oxa[4,7,10,13]tetraazacyclohexadecin-17-yl)-2-(3-(p-tolyl)ureido)propanamide] ({NH(4-Me-phenyl)-CO}-[Phe(3,5-F2)][aThr]P[NMeaThr]A[Pro(4R-Me)]; ester 2-C)",6.52 ± 0.3,,,,46.1 ± 5.5,0.1
"Cc1ccc(NC(=O)N[C@@H](Cc2cc(F)cc(F)c2)C(=O)N[C@@H]2C(=O)N3CCC[C@H]3C(=O)N3CCCC[C@H]3C(=O)N[C@@H](C)C(=O)N3C[C@H](C)C[C@H]3C(=O)O[C@H]2C)cc1 [Compound 209, (S)-3-(3,5-difluorophenyl)-2-(3-(p-tolyl)ureido)-N-((2R,6S,8aS,14aS,20S,21S,23aS)-2,6,21-trimethyl-5,8,14,19,23-pentaoxooctadecahydro-1H,5H,14H,19H-pyrido[2,1-i]dipyrrolo[2,1-c:2′,1′-l][1]oxa[4,7,10,13]tetraazacyclohexadecin-20-yl)propanamide] ({NH(4-Me-phenyl)-CO}-[Phe(3,5-F2)][aThr]P[Pip]A[Pro(4R-Me)]; ester 2-C)",9 ± 0.4,,,,40 ± 4.1,0.2
"Cc1ccc(NC(=O)N[C@@H](Cc2cc(F)cc(F)c2)C(=O)N[C@@H]2C(=O)N3CCC[C@H]3C(=O)N3CCOC[C@H]3C(=O)N[C@@H](C)C(=O)N3C[C@H](C)C[C@H]3C(=O)O[C@H]2C)cc1 [Compound 210, (S)-3-(3,5-difluorophenyl)-2-(3-(p-tolyl)ureido)-N-((6aS,12S,13S,15aS,17R,21S,23aS)-13,17,21-trimethyl-6,11,15,20,23-pentaoxooctadecahydro-6H,11H,15H-[1,4]oxazino[3,4-i]dipyrrolo[2,1-c:2′,1′-l][1]oxa[4,7,10,13]tetraazacyclohexadecin-12-yl)propanamide] ({NH(4-Me-phenyl)-CO}-[Phe(3,5-F2)][aThr]P[Morpholine(3S-CO)]A[Pro(4R-Me)]; ester 2-C)",,,,7.1 ± 0.2,5.82 ± 0.39,0.02
"C[C@@H]1NC(=O)[C@H](C)N(C)C(=O)[C@@H]2CCCN2C(=O)[C@@H](NC(=O)[C@H](Cc2ccccc2)NC(=O)Nc2ccc(OC(F)(F)F)cc2)COC(=O)C2CCCN2C1=O (stereo partly drawn) [Compound 213, (2S)-3-phenyl-2-(3-(4-(trifluoromethoxy)phenyl)ureido)-N-((6S,9S,11aS,17S)-6,9,10-trimethyl-5,8,11,16,20-pentaoxohexadecahydro-1H,5H,16H-dipyrrolo[2,1-c:2′,1′-l][1]oxa[4,7,10,13]tetraazacyclohexadecin-17-yl)propanamide] ({NH(4-OCF3-phenyl)-CO}-FSP[NMeA]A[ξP]; ester 2-C)",,51.8 ± 1,0.39,5 ± 0.4,,
"Cc1ccc(NC(=O)N[C@@H](Cc2cc(F)cc(F)c2)C(=O)N[C@@H]2C(=O)N3C[C@H](O)C[C@H]3C(=O)N(C)[C@@H](C)C(=O)N[C@@H](C)C(=O)N3C[C@@H](C)C[C@H]3C(=O)O[C@H]2C)cc1 [Compound 214, (S)-3-(3,5-difluorophenyl)-N-((2S,6S,9S,11aS,13R,17S,18S,20aS)-13-hydroxy-2,6,9,10,18-pentamethyl-5,8,11,16,20-pentaoxohexadecahydro-1H,5H,16H-dipyrrolo[2,1-c:2′,1′-l][1]oxa[4,7,10,13]tetraazacyclohexadecin-17-yl)-2-(3-(p-tolyl)ureido)propanamide] ({NH(4-Me-phenyl)-CO}-[Phe(3,5-F2)][aThr][Hyp][NMeA]A[Pro(4S-Me)]; ester 2-C)",5.8 ± 0.3,,,,> 100,0.781
"C[C@@H]1C[C@H]2C(=O)O[C@@H](C)[C@H](NC(=O)[C@H](Cc3cc(F)cc(F)c3)NC(=O)Nc3ccc(Cl)cc3F)C(=O)N3CCC[C@H]3C(=O)N3CCCC[C@H]3C(=O)N[C@@H](C)C(=O)N2C1 [Compound 307, (S)-2-(3-(4-chloro-2-fluorophenyl)ureido)-3-(3,5-difluorophenyl)-N-((2R,6S,8aS,14aS,20S,21S,23aS)-2,6,21-trimethyl-5,8,14,19,23-pentaoxooctadecahydro-1H,5H,14H,19H-pyrido[2,1-i]dipyrrolo[2,1-c:2′,1′-l][1]oxa[4,7,10,13]tetraazacyclo-hexadecin-20-yl)propanamide] ({NH(4-Cl-2-F-phenyl)-CO}-[Phe(3,5-F2)][aThr]P[Pip]A[Pro(4R-Me)]; ester 2-C)",,9.5 ± 0.8,0.156,7.8 ± 0.4,,
"CCCC/C=C/C(=O)N[C@@H](Cc1cc(F)cc(F)c1)C(=O)N[C@@H]1C(=O)N2CCC[C@H]2C(=O)N(C)[C@@H]([C@@H](C)O)C(=O)N[C@@H](C)C(=O)N2C[C@H](C)C[C@H]2C(=O)O[C@H]1C [Compound 308, (E)-N—((S)-3-(3,5-difluorophenyl)-1-(((2R,6S,9S,11aS,17S,18S,20aS)-9-((R)-1-hydroxyethyl)-2,6,10,18-tetramethyl-5,8,11,16,20-pentaoxohexadecahydro-1H,5H,16H-dipyrrolo[2,1-c:2′,1′-l][1]oxa[4,7,10,13]tetraazacyclohexadecin-17-yl)amino)-1-oxopropan-2-yl)hept-2-enamide] ({Heptenoyl(2E)}-[Phe(3,5-F2)][aThr]P[NMeT]A[Pro(4R-Me)]; ester 2-C)",,38.6 ± 1.1,< 0.02,4.4 ± 0.3,,
"CCCC/C=C/C(=O)N[C@@H](Cc1cc(F)cc(F)c1)C(=O)N[C@@H]1C(=O)N2C[C@H](O)C[C@H]2C(=O)N2CCOC[C@H]2C(=O)N[C@@H](C)C(=O)N2C[C@H](C)C[C@H]2C(=O)O[C@H]1C [Compound 309, (E)-N—((S)-3-(3,5-difluorophenyl)-1-(((6aS,8R,12S,13S,15aS,17R,21S,23aS)-8-hydroxy-13,17,21-trimethyl-6,11,15,20,23-pentaoxooctadecahydro-6H,11H,15H-[1,4]oxazino[3,4-i]dipyrrolo[2,1-c:2′,1′-l][1]oxa[4,7,10,13]tetraazacyclohexadecin-12-yl)amino)-1-oxopropan-2-yl)hept-2-enamide] ({Heptenoyl(2E)}-[Phe(3,5-F2)][aThr][Hyp][Morpholine(3S-CO)]A[Pro(4R-Me)]; ester 2-C)",,> 100,< 0.02,7.2 ± 0.4,,
